Measurements reported in ChEMBL document CHEMBL1124732, “Synthesis, conformation, and immunosuppressive activities of three analogues of cyclosporin A modified in the 1-position” (1990).

Assay: Relative immunosuppressive activity tested against inhibition of concanavalin A stimulated thymocytes
Format: functional
Parameters: scale not given: the % may be the effect or the level left

CC#CC[C@@H](C)[C@@H](O)[C@H]1C(=O)N[C@@H](CC)C(=O)N(C)CC(=O)N(C)[C@@H](CC(C)C)C(=O)N[C@@H](C(C)C)C(=O)N(C)[C@@H](CC(C)C)C(=O)N[C@@H](C)C(=O)N[C@H](C)C(=O)N(C)[C@@H](CC(C)C)C(=O)N(C)[C@@H](CC(C)C)C(=O)N(C)[C@@H](C(C)C)C(=O)N1C
Activity: 10%
